This note sets out measurements from PubChem BioAssay (NCI).

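Growth conditions: 96-well plates. Treatment: test compound, 48 hours, 5 concentrations. Analysis: linear interpolation between bracketing concentrations; unreached endpoints set to highest concentration. Definition used: TGI = concentration required for complete inhibition of growth.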 Where only a bound is given, the exact number is not on record here.

Test systems include PC-3 prostate; U251 CNS; MALME-3M melanoma; OVCAR-8 ovarian; UACC-62 melanoma; NCI-H226 lung; SK-MEL-28 melanoma; COLO 205 colon; LOX IMVI melanoma; HL-60(TB) leukemia; K-562 leukemia; M14 melanoma; SF-295 CNS; A498 renal; NCI/ADR-RES ovarian; KM12 colon; SN12C renal; MOLT-4 leukemia; UACC-257 melanoma; DMS 114 small cell lung.
Assay in all cases: inhibition of tumour cell growth, NCI panel, 48 h

As to `COC(=O)c1c(C)cccc1C1CN=NC12Cc1ccccc1C2=O` (stereo unspecified), the TGI with PC-3 prostate, in the assay with U251 CNS, in the assay with MALME-3M melanoma, with OVCAR-8 ovarian, in the assay on UACC-62 melanoma and in the assay with NCI-H226 lung was above 100 µM throughout. Further, the TGI in the assay on SK-MEL-28 melanoma is above 100 µM; in the assay with COLO 205 colon, above 100 µM; in the assay with LOX IMVI melanoma, above 100 µM; with HL-60(TB) leukemia it was above 100 µM; in the assay with K-562 leukemia, above 100 µM; with M14 melanoma, above 87.9 µM. Moreover, the TGI with SF-295 CNS, in the assay with A498 renal, in the assay with NCI/ADR-RES ovarian, in the assay with KM12 colon, in the assay on SN12C renal and in the assay with MOLT-4 leukemia was above 100 µM throughout. Moreover, the TGI in the assay on UACC-257 melanoma is above 91.3 µM.
Regarding `COC(=O)[C@H](Cc1ccccc1)NC(=O)/C(=C/C(C)C)NC(=O)[C@H](CCSC)NC=O`, the TGI in the assay on U251 CNS, with OVCAR-8 ovarian, with UACC-62 melanoma, with NCI-H226 lung, in the assay on SK-MEL-28 melanoma and in the assay on DMS 114 small cell lung was above 100 µM in each case. Besides, the TGI in the assay with COLO 205 colon, with LOX IMVI melanoma, with HL-60(TB) leukemia, in the assay with K-562 leukemia, with M14 melanoma and with SF-295 CNS was above 100 µM in each case. Besides, the TGI with A498 renal, in the assay on KM12 colon, in the assay with SN12C renal, in the assay with MOLT-4 leukemia and in the assay on UACC-257 melanoma was above 100 µM each time.
`CC1=NN(C(=O)c2ccccc2O)C(=O)/C1=C/c1cccc(O)c1`: the TGI was above 100 µM in the assay on PC-3 prostate; above 100 µM in the assay on U251 CNS; above 100 µM in the assay on MALME-3M melanoma; above 100 µM in the assay with OVCAR-8 ovarian; 2.74 µM with UACC-62 melanoma; 83.2 µM with NCI-H226 lung. In addition, the TGI was above 100 µM in the assay with SK-MEL-28 melanoma; above 86.9 µM in the assay on COLO 205 colon; above 80.5 µM with LOX IMVI melanoma; above 100 µM in the assay on HL-60(TB) leukemia; above 100 µM with K-562 leukemia; 37 µM in the assay on M14 melanoma. Moreover, the TGI with SF-295 CNS is above 100 µM; in the assay with A498 renal, 0.323 µM; in the assay with NCI/ADR-RES ovarian it was above 100 µM; in the assay with KM12 colon it was above 100 µM; with SN12C renal, above 100 µM; with MOLT-4 leukemia it was above 100 µM. This compound also returned a TGI with UACC-257 melanoma above 100 µM.
Consider `CN(C)CCNc1nc2ccccc2c2c1CCCC2`, for which the TGI was above 100 µM with PC-3 prostate; 37 µM in the assay with U251 CNS; 30.1 µM in the assay on MALME-3M melanoma; above 100 µM in the assay with OVCAR-8 ovarian; 31.1 µM in the assay on UACC-62 melanoma; 55.7 µM in the assay on NCI-H226 lung. In addition, the TGI in the assay with SK-MEL-28 melanoma was 39.6 µM; in the assay on COLO 205 colon, above 100 µM; in the assay on LOX IMVI melanoma, 34.7 µM; in the assay on HL-60(TB) leukemia, 32.3 µM; in the assay on K-562 leukemia, 39.9 µM; in the assay with M14 melanoma, 32.5 µM. Moreover, the TGI in the assay with SF-295 CNS was 31.1 µM; with A498 renal it was 35.8 µM; in the assay with NCI/ADR-RES ovarian, above 100 µM; in the assay on KM12 colon, 41.4 µM; in the assay on SN12C renal, 89.2 µM; with MOLT-4 leukemia, 61.8 µM. Moreover, the TGI in the assay on UACC-257 melanoma amounted to 29.3 µM.
In the case of `COc1ccc(CC2C3=C(CCN2C(=O)C2CCC2)CC2(CC3)OCCO2)cc1O` (stereo unspecified), the TGI in the assay on PC-3 prostate, with U251 CNS, in the assay with MALME-3M melanoma, in the assay on OVCAR-8 ovarian, in the assay with UACC-62 melanoma and in the assay on NCI-H226 lung was above 100 µM each time. Moreover, the TGI with SK-MEL-28 melanoma is above 100 µM; with COLO 205 colon, 48 µM; with LOX IMVI melanoma, above 100 µM; in the assay on HL-60(TB) leukemia, 76.9 µM; in the assay with K-562 leukemia, 84.4 µM; in the assay with M14 melanoma, 63.1 µM. Besides, the TGI in the assay on SF-295 CNS was 45.5 µM; in the assay with A498 renal, above 100 µM; with NCI/ADR-RES ovarian it was 42.2 µM; in the assay with KM12 colon, above 100 µM; in the assay with SN12C renal, above 100 µM; in the assay on MOLT-4 leukemia, above 100 µM. This compound also returned a TGI with UACC-257 melanoma above 100 µM.
In the case of `CCOc1ccc2nc3nc(=O)[nH]c(C)c3c(NCCCN(CC)CC)c2c1`, the TGI with PC-3 prostate, in the assay with U251 CNS, with MALME-3M melanoma, in the assay on OVCAR-8 ovarian, in the assay on UACC-62 melanoma and with NCI-H226 lung was above 100 µM each time. Also, the TGI with SK-MEL-28 melanoma, with COLO 205 colon, in the assay with LOX IMVI melanoma, in the assay with HL-60(TB) leukemia, in the assay on K-562 leukemia and in the assay with M14 melanoma was above 100 µM throughout. The TGI in the assay with SF-295 CNS, in the assay with A498 renal, with NCI/ADR-RES ovarian, in the assay on KM12 colon, in the assay with SN12C renal and with MOLT-4 leukemia was above 100 µM in each case. For the same compound, in the assay with UACC-257 melanoma, the TGI is above 100 µM.
For `CC(=O)Nc1ccc(NS(=O)(=O)c2ccc3nc(C)n(NS(=O)(=O)c4ccc(NC(C)=O)cc4)c(=O)c3c2)cc1`, the TGI with PC-3 prostate, with U251 CNS, in the assay with MALME-3M melanoma, in the assay with OVCAR-8 ovarian, with UACC-62 melanoma and in the assay with NCI-H226 lung was above 100 µM each time. In addition, the TGI in the assay on SK-MEL-28 melanoma, in the assay with COLO 205 colon, in the assay on LOX IMVI melanoma, in the assay with HL-60(TB) leukemia, in the assay on K-562 leukemia and with M14 melanoma was above 100 µM each time. The TGI in the assay with SF-295 CNS, with A498 renal, in the assay on NCI/ADR-RES ovarian, in the assay on KM12 colon, in the assay on SN12C renal and in the assay on MOLT-4 leukemia was above 100 µM each time. In the assay on UACC-257 melanoma, this compound displayed a TGI above 100 µM.
